Results: ChEMBL document CHEMBL1155172, “Distribution of radioactivity in bone and related structures following administration of [14C]dalbavancin to New Zealand white rabbits” (Antimicrob Agents Chemother, 2007)

Experiments:
[1] = Drug level in New Zealand white rabbit compact bone assessed as [14C]dalbavancin level per gram of tissue at 20 mg/kg, iv after 168 hrs by autoradioluminography; assay type: ADME, organism-based, Oryctolagus cuniculus, Bone element; set-up: dose 20 mg/kg, route intravenous; settings: in vivo
[2] = Drug level in New Zealand white rabbit cerebrospinal fluid assessed as [14C]dalbavancin level per gram of tissue at 20 mg/kg, iv after 12 hrs by liquid scintillation counting method; assay type: ADME, organism-based, Oryctolagus cuniculus; set-up: dose 20 mg/kg, route intravenous; settings: in vivo
Oryctolagus cuniculus [3] = experiment: Plasma concentration in New Zealand white rabbit assessed as [14C]dalbavancin level per gram of tissue at 20 mg/kg, iv after 336 hrs by liquid scintillation counting method; assay type: ADME, organism-based; set-up: dose 20 mg/kg, route intravenous; settings: in vivo
[4] = Drug level in New Zealand white rabbit nucleus pulposus assessed as [14C]dalbavancin level per gram of tissue at 20 mg/kg, iv after 168 hrs by liquid scintillation counting method; assay type: ADME, organism-based, Oryctolagus cuniculus; set-up: dose 20 mg/kg, route intravenous; settings: in vivo
[5] = Drug level in New Zealand white rabbit epiphyseal plate assessed as [14C]dalbavancin level per gram of tissue at 20 mg/kg, iv after 120 hrs by autoradioluminography; assay type: ADME, organism-based, Oryctolagus cuniculus; set-up: dose 20 mg/kg, route intravenous; settings: in vivo
[6] = Drug level in New Zealand white rabbit meniscus assessed as [14C]dalbavancin level per gram of tissue at 20 mg/kg, iv after 120 hrs by autoradioluminography; assay type: ADME, organism-based, Oryctolagus cuniculus; set-up: dose 20 mg/kg, route intravenous; settings: in vivo
[7] = Drug level in New Zealand white rabbit bone marrow assessed as [14C]dalbavancin level per gram of tissue at 20 mg/kg, iv after 72 hrs by autoradioluminography; assay type: ADME, organism-based, Oryctolagus cuniculus; set-up: dose 20 mg/kg, route intravenous; settings: in vivo
[8] = Drug level in New Zealand white rabbit compact bone assessed as [14C]dalbavancin level per gram of tissue at 20 mg/kg, iv after 120 hrs by autoradioluminography; assay type: ADME, organism-based, Oryctolagus cuniculus, Bone element; set-up: dose 20 mg/kg, route intravenous; settings: in vivo
[9] = Drug level in New Zealand white rabbit bone assessed as [14C]dalbavancin level per gram of tissue at 20 mg/kg, iv after 24 hrs by liquid scintillation counting method; assay type: ADME, organism-based, Oryctolagus cuniculus, Bone element; set-up: dose 20 mg/kg, route intravenous; settings: in vivo
[10] = Drug level in New Zealand white rabbit bone marrow assessed as [14C]dalbavancin level per gram of tissue at 20 mg/kg, iv after 120 hrs by autoradioluminography; assay type: ADME, organism-based, Oryctolagus cuniculus; set-up: dose 20 mg/kg, route intravenous; settings: in vivo
[11] = Drug level in New Zealand white rabbit periostium assessed as [14C]dalbavancin level per gram of tissue at 20 mg/kg, iv after 12 hrs by autoradioluminography; assay type: ADME, organism-based, Oryctolagus cuniculus, Periosteum; set-up: dose 20 mg/kg, route intravenous; settings: in vivo
[12] = Drug level in New Zealand white rabbit compact bone assessed as [14C]dalbavancin level per gram of tissue at 20 mg/kg, iv after 72 hrs by autoradioluminography; assay type: ADME, organism-based, Oryctolagus cuniculus, Bone element; set-up: dose 20 mg/kg, route intravenous; settings: in vivo
Staphylococcus = experiment: Antibacterial activity against Staphylococcus; assay type: functional
[13] = Drug level in New Zealand white rabbit cerebrospinal fluid assessed as [14C]dalbavancin level per gram of tissue at 20 mg/kg, iv after 24 hrs by liquid scintillation counting method; assay type: ADME, organism-based, Oryctolagus cuniculus; set-up: dose 20 mg/kg, route intravenous; settings: in vivo
[14] = Drug level in New Zealand white rabbit skeletal muscle assessed as [14C]dalbavancin level per gram of tissue at 20 mg/kg, iv after 12 hrs by autoradioluminography; assay type: ADME, organism-based, Oryctolagus cuniculus; set-up: dose 20 mg/kg, route intravenous; settings: in vivo
Blood = experiment: Drug level in New Zealand white rabbit blood assessed as [14C]dalbavancin level per gram of tissue at 20 mg/kg, iv after 12 hrs by autoradioluminography; assay type: ADME, organism-based, Oryctolagus cuniculus; set-up: dose 20 mg/kg, route intravenous; settings: in vivo
[15] = Drug level in New Zealand white rabbit epiphyseal plate assessed as [14C]dalbavancin level per gram of tissue at 20 mg/kg, iv after 168 hrs by autoradioluminography; assay type: ADME, organism-based, Oryctolagus cuniculus; set-up: dose 20 mg/kg, route intravenous; settings: in vivo
Oryctolagus cuniculus [16] = experiment: Plasma concentration in New Zealand white rabbit assessed as [14C]dalbavancin level per gram of tissue at 20 mg/kg, iv after 168 hrs by liquid scintillation counting method; assay type: ADME, organism-based; set-up: dose 20 mg/kg, route intravenous; settings: in vivo
[17] = Drug level in New Zealand white rabbit bone marrow assessed as [14C]dalbavancin level per gram of tissue at 20 mg/kg, iv after 12 hrs by autoradioluminography; assay type: ADME, organism-based, Oryctolagus cuniculus; set-up: dose 20 mg/kg, route intravenous; settings: in vivo
[18] = Drug level in New Zealand white rabbit periostium assessed as [14C]dalbavancin level per gram of tissue at 20 mg/kg, iv after 168 hrs by autoradioluminography; assay type: ADME, organism-based, Oryctolagus cuniculus, Periosteum; set-up: dose 20 mg/kg, route intravenous; settings: in vivo
[19] = Drug level in New Zealand white rabbit synovial space assessed as [14C]dalbavancin level per gram of tissue at 20 mg/kg, iv after 120 hrs by autoradioluminography; assay type: ADME, organism-based, Oryctolagus cuniculus; set-up: dose 20 mg/kg, route intravenous; settings: in vivo
[20] = Drug level in New Zealand white rabbit bone marrow assessed as [14C]dalbavancin level per gram of tissue at 20 mg/kg, iv after 336 hrs by liquid scintillation counting method; assay type: ADME, organism-based, Oryctolagus cuniculus; set-up: dose 20 mg/kg, route intravenous; settings: in vivo
[21] = Drug level in New Zealand white rabbit bone marrow assessed as [14C]dalbavancin level per gram of tissue at 20 mg/kg, iv after 120 hrs by liquid scintillation counting method; assay type: ADME, organism-based, Oryctolagus cuniculus; set-up: dose 20 mg/kg, route intravenous; settings: in vivo
[22] = Drug level in New Zealand white rabbit synovial space assessed as [14C]dalbavancin level per gram of tissue at 20 mg/kg, iv after 12 hrs by autoradioluminography; assay type: ADME, organism-based, Oryctolagus cuniculus; set-up: dose 20 mg/kg, route intravenous; settings: in vivo
[23] = Drug level in New Zealand white rabbit articular cartilage assessed as [14C]dalbavancin level per gram of tissue at 20 mg/kg, iv after 12 hrs by autoradioluminography; assay type: ADME, organism-based, Oryctolagus cuniculus; set-up: dose 20 mg/kg, route intravenous; settings: in vivo
[24] = Drug level in New Zealand white rabbit meniscus assessed as [14C]dalbavancin level per gram of tissue at 20 mg/kg, iv after 24 hrs by autoradioluminography; assay type: ADME, organism-based, Oryctolagus cuniculus; set-up: dose 20 mg/kg, route intravenous; settings: in vivo
[25] = Drug level in New Zealand white rabbit synovial space assessed as [14C]dalbavancin level per gram of tissue at 20 mg/kg, iv after 336 hrs by autoradioluminography; assay type: ADME, organism-based, Oryctolagus cuniculus; set-up: dose 20 mg/kg, route intravenous; settings: in vivo
[26] = Drug level in New Zealand white rabbit synovial space assessed as [14C]dalbavancin level per gram of tissue at 20 mg/kg, iv after 168 hrs by autoradioluminography; assay type: ADME, organism-based, Oryctolagus cuniculus; set-up: dose 20 mg/kg, route intravenous; settings: in vivo
[27] = Drug level in New Zealand white rabbit skeletal muscle assessed as [14C]dalbavancin level per gram of tissue at 20 mg/kg, iv after 120 hrs by autoradioluminography; assay type: ADME, organism-based, Oryctolagus cuniculus; set-up: dose 20 mg/kg, route intravenous; settings: in vivo
[28] = Drug level in New Zealand white rabbit periostium assessed as [14C]dalbavancin level per gram of tissue at 20 mg/kg, iv after 120 hrs by autoradioluminography; assay type: ADME, organism-based, Oryctolagus cuniculus, Periosteum; set-up: dose 20 mg/kg, route intravenous; settings: in vivo
[29] = Drug level in New Zealand white rabbit ligament assessed as [14C]dalbavancin level per gram of tissue at 20 mg/kg, iv after 12 hrs by autoradioluminography; assay type: ADME, organism-based, Oryctolagus cuniculus; set-up: dose 20 mg/kg, route intravenous; settings: in vivo
[30] = Drug level in New Zealand white rabbit ligament assessed as [14C]dalbavancin level per gram of tissue at 20 mg/kg, iv after 168 hrs by autoradioluminography; assay type: ADME, organism-based, Oryctolagus cuniculus; set-up: dose 20 mg/kg, route intravenous; settings: in vivo
[31] = Drug level in New Zealand white rabbit periostium assessed as [14C]dalbavancin level per gram of tissue at 20 mg/kg, iv after 72 hrs by autoradioluminography; assay type: ADME, organism-based, Oryctolagus cuniculus, Periosteum; set-up: dose 20 mg/kg, route intravenous; settings: in vivo
[32] = Drug level in New Zealand white rabbit epiphyseal plate assessed as [14C]dalbavancin level per gram of tissue at 20 mg/kg, iv after 72 hrs by autoradioluminography; assay type: ADME, organism-based, Oryctolagus cuniculus; set-up: dose 20 mg/kg, route intravenous; settings: in vivo
[33] = Drug level in New Zealand white rabbit epiphyseal plate assessed as [14C]dalbavancin level per gram of tissue at 20 mg/kg, iv after 12 hrs by autoradioluminography; assay type: ADME, organism-based, Oryctolagus cuniculus; set-up: dose 20 mg/kg, route intravenous; settings: in vivo
[34] = Drug level in human urine assessed as hydroxydalbavancin level; assay type: ADME, tissue-based
[35] = Drug level in New Zealand white rabbit periostium assessed as [14C]dalbavancin level per gram of tissue at 20 mg/kg, iv after 336 hrs by autoradioluminography; assay type: ADME, organism-based, Oryctolagus cuniculus, Periosteum; set-up: dose 20 mg/kg, route intravenous; settings: in vivo
[36] = Drug level in New Zealand white rabbit skeletal muscle assessed as [14C]dalbavancin level per gram of tissue at 20 mg/kg, iv after 168 hrs by autoradioluminography; assay type: ADME, organism-based, Oryctolagus cuniculus; set-up: dose 20 mg/kg, route intravenous; settings: in vivo
[37] = Drug level in New Zealand white rabbit bone marrow assessed as [14C]dalbavancin level per gram of tissue at 20 mg/kg, iv after 24 hrs by liquid scintillation counting method; assay type: ADME, organism-based, Oryctolagus cuniculus; set-up: dose 20 mg/kg, route intravenous; settings: in vivo

Drug uptake [1]: 0.34 µg/g
Drug uptake [2]: 0.08 µg/g
Cp (Oryctolagus cuniculus [3]): 0.94 µg
Drug uptake [4]: 0.64 µg/g
Drug uptake [5]: 10.3 µg/g
Drug uptake [6]: 4.39 µg/g
Drug uptake [7]: 37.79 µg
Drug uptake [8]: 0.38 µg/g
Drug uptake [9]: 5.14 µg/g
Drug uptake [10]: 29.9 µg/g
Drug uptake [11]: 20.9 µg/g
Drug uptake [12]: 0.39 µg
MIC90 (Staphylococcus): ≤ 0.06 mg/L
Drug uptake [13]: 0.05 µg/g
Drug uptake [14]: 3.26 µg
Drug uptake (Blood): 30.6 µg/g
Drug uptake [15]: 13.1 µg/g
Cp (Oryctolagus cuniculus [16]): 2.01 µg
Drug uptake [17]: 40.2 µg/g
Drug uptake [18]: 7.28 µg
Drug uptake [19]: 2.66 µg/g
Drug uptake [20]: 12 µg/g
Drug uptake [21]: 9.52 µg/g
Drug uptake [22]: 6.56 µg/g
Drug uptake [23]: 25.1 µg/g
Drug uptake [24]: 12.4 µg/g
Drug uptake [25]: 1.16 µg/g
Drug uptake [26]: 2.66 µg/g
Drug uptake [27]: 0.99 µg/g
Drug uptake [28]: 12.2 µg/g
Drug uptake [29]: 22.1 µg/g
Drug uptake [30]: 2.67 µg
Drug uptake [31]: 8.78 µg/g
Drug uptake [32]: 11.7 µg/g
Drug uptake [33]: 21.9 µg/g
Drug uptake [34]: 8 %ID
Drug uptake [35]: 5.18 µg
Drug uptake [36]: 0.94 µg/g
Drug uptake [37]: 14.8 µg/g
Structure (SMILES): CN[C@H]1C(=O)N[C@@H]2Cc3ccc(cc3)Oc3cc4cc(c3O[C@@H]3O[C@H](C(=O)O)[C@@H](O)[C@H](O)[C@H]3NC(=O)CCCCCCCCC(C)C)Oc3ccc(cc3Cl)[C@@H](O)[C@@H]3NC(=O)[C@H](NC(=O)[C@@H]4NC(=O)[C@@H](NC2=O)c2cc(cc(O)c2Cl)Oc2cc1ccc2O)c1ccc(O)c(c1)-c1c(O[C@H]2O[C@H](CO)[C@@H](O)[C@H](O)[C@@H]2O)cc(O)cc1[C@@H](C(=O)NCCCN(C)C)NC3=O [DALBAVANCIN]
